Entries after “also recorded” stand apart in the source; their conditions may differ.

Experiment [1] concerns NT binding sites. The following applies: rat, 5–9 days after the birth; ref Lépée-Lorgeoux et al., 1999; cited from earlier work. From the text:
This is similar to that reported previously for somatostatin and benzodiazepine binding sites ([Najimi et al., 1991], [2001]). […] We cannot exclude also that these hypothalamic structures have not yet completed their neuronal maturation ([Kopp et al., 1992]). Studies on older ages should reveal the ...

Experiment [2] has as its target T1, NT binding sites, human hypothalamus (neonate/infant) (Homo sapiens, UniProt P30989).
T1 construct: The frozen hypothalami were then sliced as 20 μm thick coronal sections; from tissue; host or cells: postmortem human neonate/infant hypothalamus, 20 μm frozen coronal sections
As to the kind of experiment: Levocabastine competition with specific 125I-NT binding (competition experiments and autoradiography). The following applies: all hypothalamic nuclei and areas in all cases.
Protocol: After incubation, the slides were washed with ice cold buffer four times for 2 min each and rapidly dried with cold air. Labeled sections and iodinated standards (Amersham, Courtaboeuf Cedex, France) were then apposed to 3H sensitive Ultrofilm (Amersham) in Amersham exposure cassettes. After 2 weeks exposure in dark conditions at 4°C, the film was developed in Kodak D19 (Eastman Kodak, Rochester, NY, USA) for 3 min, dipped in water and fixed with Kodak rapid fixer for 10 min.
Kinetics (IC50 and KD) analysis was computed by the method of [Parker and Waud (1971)].

The subject of experiment [3] is NT2 receptor. The following applies: reference not given; cited from earlier work.

T1 sequence (P30989 whole entry): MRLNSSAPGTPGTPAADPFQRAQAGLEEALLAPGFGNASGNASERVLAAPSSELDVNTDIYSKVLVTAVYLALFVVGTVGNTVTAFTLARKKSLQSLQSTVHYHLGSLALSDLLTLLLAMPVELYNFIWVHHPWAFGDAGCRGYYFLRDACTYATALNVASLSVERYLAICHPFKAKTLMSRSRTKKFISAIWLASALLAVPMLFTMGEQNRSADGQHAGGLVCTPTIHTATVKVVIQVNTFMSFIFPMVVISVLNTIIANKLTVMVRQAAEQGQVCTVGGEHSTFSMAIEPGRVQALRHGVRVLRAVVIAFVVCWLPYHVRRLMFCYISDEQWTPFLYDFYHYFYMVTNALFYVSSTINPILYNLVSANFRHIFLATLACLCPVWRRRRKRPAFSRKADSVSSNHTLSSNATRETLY

As for `COc1cccc(OC)c1-c1cc(C(=O)NC2(C(=O)O)C3CC4CC(C3)CC2C4)nn1-c1ccnc2cc(Cl)ccc12` (stereo not drawn) [SR 48692], the “number of NT binding sites after blockade of neurotransmission” value in experiment [1] is “increases greatly the number of NT binding sites”.
On to `C[C@@H]1CN([C@H]2CC[C@](C#N)(c3ccc(F)cc3)CC2)CC[C@]1(C(=O)O)c1ccccc1` [levocabastine], for which the “inhibition of specific 125I-NT binding by levocabastine” value in experiment [2] was “insensitivity to levocabastine; also recorded: did not inhibit specific binding of ^125I-NT”. Also, in experiment [3], the “affinity for the NT2 receptor, in words” value was “has affinity for the NT2 receptor”.

The values are drawn from PMC4160091 (Frontiers in Cellular Neuroscience, 2014).
